Experimental data from patent US20260337229A1 (Seattle Children's Hospital (d/b/a Seattle Children's …, priority 2022, published 2026).
Read-outs that look alike come from different tables or passages of the source. Starred links: 1 amine or outer side, 2 acyl side, 3 side chain; linkers in the order of their positions; H or OH if unused. Positions of bridges follow the written chain, without caps; N, C: chain ends. Non-standard residues stand in square brackets, D forms with d. Residues, ends and D or L forms follow the SMILES beside them. Groups on a side chain read outwards from the residue. *: point of attachment. PEG8 = NCCOCCOCCOCCOCCOCCOCCOCCOCCC(=O)O; Palmitoyl = CCCCCCCCCCCCCCCC(=O)*; hCys = N[C@@H](CCS)C(=O)O; X1 = O=C(CC[*:2])[*:1]

Experiments:
human V2 receptor = molecular target: T1, human V2 receptor (Homo sapiens, UniProt P30518); assay: cAMP production (HTRF) agonist assay at human V2 receptor; assay type: cell-based; conditions: stably transfected CHO cells, read-out: hV2R, EC50
T1 construct: expressed in transfected cells; host or cells: CHO
Method: In Vitro Functional Assay measuring V2R Evaluation of the agonist activity of ASK2131 at the human V2 receptor expressed in stably transfected CHO cells was conducted by measuring its effects on cAMP production using the HTRF detection method. The cells were suspended in HBSS buffer (Invitrogen, Carsbad, CA) complemented with 20 mM HEPES (pH 7.4), 0.010% BSA and 500 μM IBMX, then distributed in microplates at a density of […] cells/well and incubated for 30 min at room temperature in the absence (control) or presence of the test compound or the reference agonist.
For stimulated control measurement, separate assay wells contained 1 nM AVP. Following incubation, the cells were lysed, and the fluorescence acceptor (D2-labeled cAMP) and fluorescence donor (anti-cAMP antibody labeled with europium cryptate) were added. After 60 min at room temperature, the fluorescence transfer was measured at γ ex=337 nm and γ em=620 and 665 nm using a microplate reader (Envision, Perkin Elmer). The cAMP concentration was determined by dividing the signal measured at 665 nm by that measured at 620 nm (ratio).
The results were expressed as a percent of the control response to 1 nM AVP. The standard reference agonist was AVP, which was tested in each experiment at several concentrations to generate a concentration-response curve from which its EC50 value was calculated.

[1] = 22-day long-term study in DIO rats (body weight, food and water intake); assay type: in vivo, male Sprague Dawley rats; conditions: in words
From the text: For studies utilizing a DIO rat model, male Sprague Dawley rats (CD-IGS rats, strain 001; approximately 4 weeks of age; 51-75 g) purchased from Charles River Laboratories (Wilmington, MA, USA). These rats were fed a diet of 60% calories from fat (Formula: D12492; Research Diets, Inc., New Brunswick, NJ, USA; 5.21 kcal/g) for 4.5 to 6 months prior to the start of the study to induce obesity. For studies utilizing lean rats, male Sprague Dawley rats (CD-IGS rats, strain 001; 226-250 g) purchased from Charles River Laboratories (Wilmington, MA, USA). All rats had ad libitum access to food and water and were kept on a 12 h light/12 h dark cycle. Animals were individually housed in a temperature (22±1° C.) and humidity (57±4%) controlled room. All body weight measurements were taken just prior to the start of the dark cycle.
(§1) Male Sprague Dawley rats were fed 60% HF diet (D12492; Research Diets, Inc; New Brunswick, NJ; 5.21 kcal/g) for 16 weeks prior to the start of the study. Rats were then singly house in BioDAQ cages (Research Diets, Inc.; New Brunswick, NJ) and allowed to acclimate to their new environment for 10 days. Baseline measures of body weight, food intake and water intake were taken for one week to balance the groups and create feeding pairs. Each group (n=6 animals/group) averaged 714.47±81.6 g at baseline (Table 3).
(§2) Effects of ASK2131 were compared to a vehicle-treated group, OXT-treated group, as well as a pair-fed control group. Three days of baseline measures were taken before subcutaneous treatment administration began on day 4 of the study. Assessments were made to body weight, food intake and water intake. ASK2131 was administered at 50 nmol/kg throughout the entire study period. […] OXT-treated animals were started at 50 nmol/kg dose for two days, followed by 150 nmol/kg, then 300 nmol/kg, until ending at 600 nmol/kg for the remainder of the study.

human V1a receptor = molecular target: T2, human V1a receptor (Homo sapiens, UniProt P37288); assay: Cytosolic Ca2+ mobilization agonist assay at human V1a receptor; assay type: cell-based; conditions: stably transfected CHO cells; read-out: hV1aR, EC50
T2 construct: expressed in transfected cells; host or cells: CHO
Method: The cells were suspended in DMEM buffer (Invitrogen, Carlsbad, CA) complemented with 0.1% FCSd, then distributed in microplates at a density of 4.5×10^4 cells/well. The fluorescent probe (Fluo4 Direct, Invitrogen, Carlsbad, CA) mixed with probenicid in HBSS buffer (Invitrogen, Carlsbad, CA) complemented with 20 mM HEPES (Invitrogen, Carlsbad, CA) (pH 7.4) was then added into each well and equilibrated with the cells for 60 min at 37° C. then 15 min at 22° C. The assay plates were positioned in a microplate reader (CellLux, PerkinElmer) followed by the addition of the test compound ASK2131, reference agonist or HBSS buffer (basal control), and the measurements of changes in fluorescence intensity which varies proportionally to the free cytosolic Ca^2+ ion concentration. For stimulated control measurements, AVP at 1 μM was added in separate assay wells. The results were expressed as a percent of the control response to 1 μM AVP. The standard reference agonist was AVP, which was tested in each experiment at several concentrations to generate a concentration-response curve from which its EC50 value was calculated.

hOXTR = molecular target: T3, hOXTR (Homo sapiens, UniProt P30559); assay: Ca2+ flux fluorometric imaging plate reader assay at OXTR; assay type: cell-based
T3 construct: expressed in transfected cells; host or cells: CHO (hOTR NFAT bLac)
T3 sequence (P30559 1-389): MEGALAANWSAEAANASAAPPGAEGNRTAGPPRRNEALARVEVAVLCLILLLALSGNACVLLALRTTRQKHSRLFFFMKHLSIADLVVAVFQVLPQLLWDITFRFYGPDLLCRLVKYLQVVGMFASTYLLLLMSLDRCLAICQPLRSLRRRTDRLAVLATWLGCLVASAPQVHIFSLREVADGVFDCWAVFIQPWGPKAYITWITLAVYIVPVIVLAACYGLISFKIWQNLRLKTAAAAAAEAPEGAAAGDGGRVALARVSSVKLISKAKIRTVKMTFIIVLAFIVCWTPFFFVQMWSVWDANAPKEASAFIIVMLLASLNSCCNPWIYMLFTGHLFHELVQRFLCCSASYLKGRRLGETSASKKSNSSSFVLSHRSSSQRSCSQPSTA
Method: In a typical experimental protocol, stably transfected Chinese hamster ovary (CHO) hOTR NFAT bLac cells were plated at a density of 10,000 cells/well in a 384-well plate in growth medium (Dulbecco's modified Eagle's medium+Glutamax (Thermo Fisher Scientific, Waltham, MA), 10% dialyzed fetal bovine serum). The next day calcium-sensitive, fluo-4 dye (Invitrogen, Carlsbad, CA) and probenecid (Invitrogen; 2.5 mM) was dissolved in 20 ml warm dye loading buffer (Hanks' balanced salt solution with calcium and magnesium, 20 mM Hepes, pH 7.4) and added to each well. Plates were incubated for 60-120 minutes in a 37° C. cell incubator to allow cells to uptake the dye. […] After dye-loading, the cell plates were placed on the fluorometric imaging plate reader. A total of […] of test compound was added to the […] of dye on the cells, and intracellular Ca^2+ was monitored for 90 seconds. Intracellular Ca^2+ concentrations were calculated as the maximum increase over basal levels. Responses were normalized to control responses. Data were analyzed by curve fitting.

[2] = Blood parameters after 22-day treatment of DIO rats; assay type: in vivo, male Sprague Dawley rats
From the text: as §1, §2
Cardiac puncture was used to collect blood for analysis 2 h post final injection. Commercially available enzyme-linked immunosorbent assays (ELISA) were used for quantitative assessment of leptin (cat. #EZRL-83K; MilliporeSigma, Burlington, MA, USA), insulin (cat. #EZRMI-13K; MilliporeSigma, Burlington, MA, USA), and adiponectin (cat. #EZRAPD-62K MilliporeSigma, Burlington, MA, USA). Serum samples were diluted 1:500 for the adiponectin ELISA using the sample diluent provided with the kit. All ELISAs were completed following the manufacturers recommendations. Levels of glucose, cholesterol (total, HDL, and calculated LDL), triglycerides, ALT, and AST were determined in the serum on a Modular P chemistry analyzer (Roche Diagnostics, Risch-Rotkreuz, Switzerland) by the University of Washington Nutrition and Obesity Research Center's Analytic Core (Seattle, WA, USA).

[3] = Pharmacokinetics, iv, rat; assay type: in vivo
[4] = serum 2 h post final injection, 22 days sc, mean ± SEM, OXT n=4

T1 sequence (P30518 whole entry): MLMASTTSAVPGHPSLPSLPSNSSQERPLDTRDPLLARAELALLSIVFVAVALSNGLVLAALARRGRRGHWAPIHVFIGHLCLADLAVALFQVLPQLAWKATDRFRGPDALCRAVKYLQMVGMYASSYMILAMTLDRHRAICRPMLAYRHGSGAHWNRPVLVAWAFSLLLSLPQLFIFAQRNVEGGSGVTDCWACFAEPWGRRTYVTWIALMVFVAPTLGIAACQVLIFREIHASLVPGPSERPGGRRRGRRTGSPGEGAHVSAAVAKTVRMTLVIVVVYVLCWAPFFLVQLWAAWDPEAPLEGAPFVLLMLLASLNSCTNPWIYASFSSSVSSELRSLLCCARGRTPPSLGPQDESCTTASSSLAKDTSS
T2 sequence (P37288 whole entry): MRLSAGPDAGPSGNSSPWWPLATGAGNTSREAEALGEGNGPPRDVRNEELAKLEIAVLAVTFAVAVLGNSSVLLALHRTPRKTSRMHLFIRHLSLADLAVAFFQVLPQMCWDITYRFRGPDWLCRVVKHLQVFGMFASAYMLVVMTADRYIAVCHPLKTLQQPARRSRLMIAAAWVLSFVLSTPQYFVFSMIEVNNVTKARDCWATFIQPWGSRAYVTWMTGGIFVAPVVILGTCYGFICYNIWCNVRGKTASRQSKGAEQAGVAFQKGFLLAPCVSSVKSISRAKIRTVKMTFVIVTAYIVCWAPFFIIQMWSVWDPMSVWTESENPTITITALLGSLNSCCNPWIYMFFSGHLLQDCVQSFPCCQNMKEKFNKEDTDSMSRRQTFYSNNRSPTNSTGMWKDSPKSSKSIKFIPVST

EC50 (human V2 receptor): 0.36 nM
EC50 (human V1a receptor): > 1000 nM
EC50 (hOXTR): 1.1 nM
Ratio OXTR/V2R/ (hOXTR; ratio of EC50 values): 3.06
T1/2 [3]: 2.30 h
Tmax [3]: 4.00 h
free Cmax ([3]; 4 hours post-dose): 0.5 nM
half-life ([3]; plasma): 2.3 h
clearance ([3]; plasma, read-out: CLplasma): 1.2 mL/min/kg
Tmax ([3]; plasma, read-out: Tmax): 4 h
Vd ([3]; plasma, read-out: Vd, steady-state volume of distribution): 0.8 L/kg
Cmax at 4 h ([3]; total plasma concentration, 4 hours post-dose): 276 nM
SMILES: CCCCCCCCCCCCCCCC(=O)NCCOCCOCCOCCOCCOCCOCCOCCOCCC(=O)NCCCC[C@H](NC(=O)CNC(=O)[C@@H]1CCSCCC(=O)N[C@@H](Cc2ccc(O)cc2)C(=O)N[C@@H]([C@@H](C)CC)C(=O)N[C@@H](CCC(N)=O)C(=O)N[C@@H](CC(N)=O)C(=O)N1)C(=O)NCC(N)=O [ASK2131] (YIQN[hCys]GK([PEG8-Palmitoyl])G-NH2; linker N-5 via X1)
adverse effects caused by the activation of V2R [1]: No adverse effects caused by the activation of V2R were observed
glucose, triglyceride, ALT, and AST levels ([2]; 22 days, in words): No significant differences
ALT [2, 4]: 26 ± 2 U/L
AST [2, 4]: 73 ± 8 U/L
